How the values were obtained:
[1] = tested on: Stagonospora nodorum; test: Test of Preventive Effect on Wheat Glume Blotch; format: in vivo; conditions: wheat (Shirogane), foliage application 500 ppm before inoculation, 18° C. 4 days dark high humidity then 4 days lighting
Procedure: (§1) In the following Test Examples, foliage application was accomplished by spraying each test solution over a different plant.
(§2) The controlling effect was evaluated by visually observing the area or lesion spots on each of test plants at the time of investigation and comparing the area of lesion spots on a plant treated with the present compound with that on an untreated plant.
Each of plastic pots was filled with sandy loam and sown with wheat (cultivar; Shirogane), followed by growing in a greenhouse for 10 days.
Each of the present compounds 1 and 3 to 37 was formulated into a flowable formulation according to Formulation Example 6. The flowable formulation was diluted to a predetermined concentration (500 ppm) with water, and foliage application of the dilution was carried out so that the dilution could adhere sufficiently to the surfaces of leaves of the grown wheat seedling.
The wheat which was applied by the dilution was air-dried and then inoculated by spraying a water suspension of spores of Stagonospora nodorum.
After the inoculation, the plant was held under darkness and high humidity conditions at 18° C. for 4 days and then under lighting conditions for 4 days, and then the area of lesion spots was investigated.

[2] = tested on: Septoria tritici; test: Test of Preventive Effect on Wheat Leaf Blotch; format: in vivo; conditions: wheat (Apogee), foliage application 500 ppm, inoculation after 3 or 4 days, 18° C. high humidity 3 days then lighting 14 to 18 days
Procedure: as §1, §2
Each of plastic pots was filled with sandy loam and sown with wheat (cultivar: Apogee), followed by growing in a greenhouse for 10 days. Each of the present compounds 49 to 52 was formulated into a flowable formulation according to Formulation Example 6. The flowable formulation was diluted to a predetermined concentration (500 ppm) with water, and foliage application of the dilution was carried out so that the dilution could adhere sufficiently to the surfaces of leaves of the grown wheat seedling. After the application, the plant was air-dried. After 3 or 4 days, the plant was inoculated by spraying a water suspension of spores of Septoria tritici. After the inoculation, the plant was held under high humidity conditions at 18° C. for 3 days and then under lighting condition for 14 to 18 days. Then, the area of lesion spots was investigated.

Row | Compound | area of lesion spots on the treated plant relative to that on an untreated plant [1] [%] | area of lesion spots on the treated plant relative to that on an untreated plant [2] [%]
1 | O=C(NCC1CCCCC1)c1ccnc(F)c1 [compound 4] | ≤ 30 | 
2 | CC1CCCCC1NC(=O)c1cc(N)nc(F)c1 (centres unmarked) [compound 50] |  | ≤ 30

Reference: patent US20100137376A1 (priority 2007, published 2010)
